From patent US10407467B2, “Polymyxin derivatives and their use in combination therapy together with different antibiotics” (priority 2013, dated 2019)
Bridge positions count the residues as written; N and C are the ends. Square brackets hold non-standard residues; d marks the D form. Peptide text beside a SMILES is read from it. * marks the point of attachment. Dab = NCC[C@H](N)C(=O)O; X1 = CCCCCCC(O)C(=O)*

Key:
[1] = system: Acinetobacter baumannii; test: MIC, compound in combination with a second agent (broth microdilution); type: cell-based
In short: (§1)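 Read-out is the total-drug MIC of a 1:1 weight ratio combination with another agent, e.g. rifampicin. Duplicates within 2-fold gave the lower value; wider spread meant a non-valid assay. Where compounds were tested multiple times, the mode is given.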

[2] = system: Escherichia coli; test: as above; type: cell-based
In short: as §1

[3] = system: Klebsiella pneumoniae; test: as above; type: cell-based
In short: as §1

[4] = system: Pseudomonas aeruginosa; test: as above; type: cell-based
In short: as §1

[5] = system: Acinetobacter baumannii; test: MIC, sole activity (no second agent); type: cell-based
In short: (§2)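 Up to four strains per species were tested in cation-adjusted Mueller-Hinton broth, with inoculum made by direct colony suspension from 18-24 hour Mueller-Hinton agar plates, adjusted to 0.5 McFarland. Duplicates differing by under 2-fold gave the lower value; greater spread voided the run. Values are relative to Polymyxin B.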

[6] = system: Escherichia coli; test: MIC, sole activity (no second agent); type: cell-based
In short: as §2

[7] = system: Klebsiella pneumoniae; test: MIC, sole activity (no second agent); type: cell-based
In short: as §2

[8] = system: Pseudomonas aeruginosa; test: MIC, sole activity (no second agent); type: cell-based
In short: as §2

[9] = system: HK-2 cell line; test: In vitro renal cell toxicity assay (resazurin reduction); type: cell-based, human
[10] = system: Klebsiella pneumoniae ATCC10031; conditions: 10 mg/kg/day, neutropenic mice thigh infection
Experimental: At 1 h, the CFU count was determined from 5 mice and the remaining mice (five per group) were treated with a subcutaneous injection of the drug at +1 and 6 hr post-infection.
Twenty-four hours after infection, the mice were euthanized humanely. The muscle of the right thigh of each animal was harvested, homogenized, serially diluted and plated on Brain Heart Infusion agar+0.5% charcoal (w/v) for CFU determination. Decrease of the total CFU of right thigh as compared to control counts at 24 h post-infection was determined for each dose group.

[11] = rats, 8 mg/kg BID regimen, seven days, compared to Colistin at the same dose regimen
Experimental: After one week acclimatisation, male Sprague-Dawley rats were surgically prepared with a jugular cannula and were housed individually, as required, either in pre-assigned housing cages or metabolic cages. Colistin and the Example Compounds were prepared in saline.
Compounds were introduced via the jugular cannula twice a day 7 hours apart for seven days. Each dose was increased progressively for three days up to the top dose that was then administered until termination of the study. Twenty-four hour urine collection (on ice) was performed at pre-dose and on days 4 and 7. The dose regimen is set out in Table 10 below.
The doses in the table are indicated in mg drug base/kg (free base).
The activity in urine of the N-acetyl-beta-D-glucosaminidase (NAG) was determined spectrophotometrically using the NAG assay kit from Roche Applied Science. Biomarkers of kidney injury were determined using the Kidney Injury Panel II from the Multi-Spot® Assay System (Meso Scale Discovery).

[12] = 1:1 combination with Ciprofloxacin (by row order), total drug concentration
[13] = 1:1 combination with Ciprofloxacin, total drug concentration
[14] = 1:1 combination with Tigecycline, total drug concentration
[15] = 1:1 combination with Vancomycin, total drug concentration
[16] = Second Agent none (Table 7B, by row order)

## CCCCCCC(O)C(=O)N[C@H](C(=O)N[C@@H](CCN)C(=O)N[C@H]1CCNC(=O)[C@H]([C@@H](C)O)NC(=O)[C@H](CCN)NC(=O)[C@H](CCN)NC(=O)[C@H](CC(C)C)NC(=O)[C@@H](Cc2ccccc2)NC(=O)[C@H](CCN)NC1=O)[C@@H](C)O (stereo partly drawn) [Example 1, [2(R,S)-2-Hydroxyoctanoyl] polymyxin B nonapeptide] (X1-T[Dab][Dab][Dab][dF]L[Dab][Dab]T; lactam 3-C)
[1]; 1:1 (wt:wt) combination with Rifampicin, MIC = total drug concentration, strain CCUG57249
  MIC A. baumannii CCUG57249: 0.25 micrograms/mL
[1]; 1:1 (wt:wt) combination with Rifampicin, MIC = total drug concentration, strain NCTC 13424
  MIC A. baumannii NCTC 13424: 0.25 micrograms/mL
[1]; [12]
  MIC A. baumannii NCTC 13424: 0.5 micrograms/mL
[2]; 1:1 (wt:wt) combination with Rifampicin, MIC = total drug concentration, strain NCTC9001
  MIC E. coli NCTC9001: 0.5 micrograms/mL
[2]; [13]
  MIC E. coli ATCC25922: ≤0.06 micrograms/mL
  MIC E. coli CCUG 59342: 2 micrograms/mL
  MIC E. coli NCTC9001: ≤0.06 micrograms/mL
[2]; [14]
  MIC E. coli NCTC9001: 4 micrograms/mL
[2]; [15]
  MIC E. coli NCTC9001: 4 microgram/mL
[2]; E. coli NCTC9001, 1:1 combination with Meropenem, total drug concentration
  MIC E. coli NCTC9001: 0.25 micrograms/mL
[3]; 1:1 (wt:wt) combination with Rifampicin, MIC = total drug concentration, strain ATCC 4352
  MIC K. pneumoniae ATCC 4352: 1 micrograms/mL
[3]; 1:1 (wt:wt) combination with Rifampicin, MIC = total drug concentration, strain ATCC-BAA-2146
  MIC K. pneumoniae ATCC-BAA-2146: 2 micrograms/mL
[3]; 1:1 (wt:wt) combination with Rifampicin, MIC = total drug concentration, strain CCUG-59348
  MIC K. pneumoniae CCUG-59348: 2 micrograms/mL
[3]; 1:1 (wt:wt) combination with Rifampicin, MIC = total drug concentration, strain NCTC 13438
  MIC K. pneumoniae NCTC 13438: 1 micrograms/mL
[3]; [12]
  MIC K. pneumoniae ATCC 4352: ≤0.06 micrograms/mL
  MIC K. pneumoniae ATCC BAA-1706: 0.5 micrograms/mL
[3]; [13]
  MIC K. pneumoniae CCUG 59348: 32 micrograms/mL
  MIC K. pneumoniae NCTC 13442: 1 micrograms/mL
[3]; [14]
  MIC K. pneumoniae CCUG 59348: >32 micrograms/mL
  MIC K. pneumoniae NCTC 13442: 16 micrograms/mL
[3]; [15]
  MIC K. pneumoniae CCUG 59348: >32 microgram/mL
  MIC K. pneumoniae CCUG 59626: 2 microgram/mL
  MIC K. pneumoniae NCTC 13442: 8 microgram/mL
[3]; K. pneumoniae ATCC BAA-1706, 1:1 combination with Meropenem, total drug concentration
  MIC K. pneumoniae ATCC BAA-1706: 4 micrograms/mL
[3]; K. pneumoniae CCUG 59348, 1:1 combination with Meropenem, total drug concentration
  MIC K. pneumoniae CCUG 59348: >32 micrograms/mL
[3]; K. pneumoniae NCTC 13442, 1:1 combination with Meropenem, total drug concentration
  MIC K. pneumoniae NCTC 13442: 8 micrograms/mL
[4]; 1:1 (wt:wt) combination with Rifampicin, MIC = total drug concentration, strain ATCC 27853
  MIC P. aeruginosa ATCC 27853: 0.5 micrograms/mL
[4]; 1:1 (wt:wt) combination with Rifampicin, MIC = total drug concentration, strain ATCC-47
  MIC P. aeruginosa ATCC-47: 1 micrograms/mL
[4]; 1:1 (wt:wt) combination with Rifampicin, MIC = total drug concentration, strain CCUG 59626
  MIC P. aeruginosa CCUG 59626: 1 micrograms/mL
[4]; [12]
  MIC P. aeruginosa ATCC 27853: 0.125 micrograms/mL
  MIC P. aeruginosa CCUG 59626: 1 micrograms/mL
[4]; [14]
  MIC P. aeruginosa CCUG 59626: 2 micrograms/mL
[4]; P. aeruginosa CCUG 59626, 1:1 combination with Meropenem, total drug concentration
  MIC P. aeruginosa CCUG 59626: 2 micrograms/mL
[5]; [16]
  MIC A. baumannii NCTC 13424: 4 micrograms/mL
[5]; in the absence of Rifampicin, strain ATCCBAA-747
  MIC A. baumannii ATCCBAA-747: 2 micrograms/mL
[5]; in the absence of Rifampicin, strain NCTC13423
  MIC A. baumannii NCTC 13423: 1 micrograms/mL
[6]; E. coli NCTC9001, second agent none
  MIC E. coli NCTC9001: 4 micrograms/mL
[6]; Second Agent none (Table 7A)
  MIC E. coli NCTC9001: 4 microgram/mL
[6]; Second Agent none (Table 7B)
  MIC E. coli ATCC25922: 4 micrograms/mL
  MIC E. coli CCUG 59342: 1 micrograms/mL
  MIC E. coli NCTC9001: 8 micrograms/mL
[6]; Second Agent none (Table 7C)
  MIC E. coli NCTC9001: 4 micrograms/mL
[6]; in the absence of Rifampicin, strain ATCC25922
  MIC E. coli ATCC25922: 2 micrograms/mL
[6]; in the absence of Rifampicin, strain NCTC9001
  MIC E. coli NCTC9001: 2 micrograms/mL
[7]; K. pneumoniae ATCC BAA-1706, second agent none
  MIC K. pneumoniae ATCC BAA-1706: 4 micrograms/mL
[7]; K. pneumoniae CCUG 59348, second agent none
  MIC K. pneumoniae CCUG 59348: >32 micrograms/mL
[7]; K. pneumoniae NCTC 13442, second agent none
  MIC K. pneumoniae NCTC 13442: 8 micrograms/mL
[7]; Second Agent none (Table 7A)
  MIC K. pneumoniae CCUG 59348: >32 microgram/mL
  MIC K. pneumoniae CCUG 59626: 2 microgram/mL
  MIC K. pneumoniae NCTC 13442: 8 microgram/mL
[7]; Second Agent none (Table 7B)
  MIC K. pneumoniae CCUG 59348: >32 micrograms/mL
  MIC K. pneumoniae NCTC 13442: 8 micrograms/mL
[7]; [16]
  MIC K. pneumoniae ATCC 4352: 1 micrograms/mL
  MIC K. pneumoniae ATCC BAA-1706: 4 micrograms/mL
[7]; Second Agent none (Table 7C)
  MIC K. pneumoniae CCUG 59348: >32 micrograms/mL
  MIC K. pneumoniae NCTC 13442: 8 micrograms/mL
[7]; in the absence of Rifampicin, strain ATCC 4352
  MIC K. pneumoniae ATCC 4352: 1 micrograms/mL
[7]; in the absence of Rifampicin, strain CCUG-59348
  MIC K. pneumoniae CCUG-59348: >32 micrograms/mL
[8]; P. aeruginosa CCUG 59626, second agent none
  MIC P. aeruginosa CCUG 59626: 2 micrograms/mL
[8]; [16]
  MIC P. aeruginosa ATCC 27853: 0.5 micrograms/mL
  MIC P. aeruginosa CCUG 59626: 2 micrograms/mL
[8]; Second Agent none (Table 7C)
  MIC P. aeruginosa CCUG 59626: 2 micrograms/mL
[8]; in the absence of Rifampicin, strain ATCC27853
  MIC P. aeruginosa ATCC 27853: 0.5 micrograms/mL
[8]; in the absence of Rifampicin, strain ATCCCRM-9027
  MIC P. aeruginosa ATCCCRM-9027: 0.25 micrograms/mL
[8]; in the absence of Rifampicin, strain CCUG 59626
  MIC P. aeruginosa CCUG 59626: 2 micrograms/mL
[9]
  HK-2 toxicity (IC50) compared with PMB: significantly increased recorded IC50 values
[10]
  reduction in bacterial counts: approx. 2 log10
[11]
  levels of the renal biomarkers NAG, albumin and cystatin C in urine: significantly reduced levels
